Among the data in patent US8008487B2, “Substituted thieno[2,3-D]pyrimidines as fungicides” (priority 2004, dated 2011) are pest or weed control values, retold here.

Holding throughout (format): in vivo
The subject of one experiment is Septoria tritici. As to the kind of experiment: Speckled Leaf Blotch of Wheat (SEPTTR), whole-plant fungicide test. The note with it: Zymoseptoria tritici, foliar, 24 h, 200 ppm on foliage, one-day protectant test, read-out: SEPTTR percent control of disease.
The test system of the next experiment is Leptosphaeria nodorum. As to the kind of experiment: Glume Blotch of Wheat (LEPTNO), whole-plant fungicide test. Particulars: Parastagonospora nodorum, foliar, 24 h, 200 ppm on foliage, one-day protectant test, read-out: LEPTNO percent control of disease.
A further experiment deals with Colletotricum lagenarium. Nature of the experiment: Cucumber Anthracnose (COLLLA), whole-plant fungicide test. Particulars: Cucumis sativus, foliar, 24 h, 200 ppm on foliage, one-day protectant test, read-out: COLLLA percent control of disease.
In another experiment the test system is Magnaporthe grisea. Nature of the experiment: whole plant or invertebrate. The note with it: Pyricularia oryzae, in Oryza sativa, foliar, 24 h, read-out: PYRIOR percent control of disease, 200 ppm on foliage, rice, one-day protectant test.
Experiment [1] concerns Erysiphe graminis f. sp. tritici. As to the kind of experiment: Powdery Mildew of Wheat (ERYSGT), whole-plant fungicide test. Particulars: Blumeria graminis, foliar, 24 h, 200 ppm on foliage, one-day protectant test, read-out: ERYSGT percent control of disease.
The subject of a further experiment is Cochliobolus sativus. As to the kind of experiment: Spot Blotch of Wheat (COCHSA), whole-plant fungicide test. The note with it: Bipolaris sorokiniana, foliar, 24 h, 200 ppm on foliage, one-day protectant test, read-out: COCHSA percent control of disease. On the procedure:
The activity of the compounds as effective fungicides was determined by applying the compounds to plants and observing control of fungal disease. The compounds were formulated at 200 ppm in 10 vol. percent acetone plus 90 vol. percent Triton X water (deionized water 99.99 wt. percent+0.01 wt. percent Triton X100), giving a “formulated test compound.” In a few cases, compounds were formulated at 100, 75 or 8.3 ppm rather than 200 ppm in 10 vol. percent acetone plus 90 vol. percent Triton X water (deionized water 99.99 wt. percent+0.01 wt. percent Triton X100), giving a ‘formulated test compound’. The compounds were tested for ability to control plant diseases in a 1-day protectant test (1DP) or a 2-day curative test (2DC). Formulated test compounds were applied to plants using a turn table sprayer fitted with two opposing air atomization nozzles which delivered approximately 1500 L/ha of spray volume. Plants were inoculated with spores of the fungus the next day (1DP), then incubated in an environment conducive to disease development. In a few cases, the compounds were tested for ability to control plant disease in a two-day curative test. Plants were inoculated with spores of the fungus two days prior to compound application, and incubated in an environment conducive to disease development both before and after compound application (2DC). For all types of tests, disease severity was evaluated 4 to 28 days later, depending on the speed of disease development.
Each pot contained 3-8 seedlings. These plants were sprayed until wet with the formulated test compound. On the following day, the leaves were inoculated with an aqueous spore suspension of Cochliobolus sativus and the plants were kept in high humidity for one to two days to permit spores to germinate and infect the leaf. The plants were then transferred to a greenhouse until disease developed on untreated control plants.
The following table presents the activity of typical compounds of the present invention when evaluated in these experiments. The effectiveness of the test compounds in controlling disease was determined by assessing the severity of disease on treated plants, then converting the severity to percent control based on the level of disease on untreated, inoculated plants.
TABLE 4: Activity of compounds as fungicides. Data are the level at which the given disease was controlled when the given compound was applied to the foliage of the plant at 200 ppm. In a few cases (noted in the table) the compound was applied to the plant at 100, 75 or 8.3 ppm. The plant was inoculated with the fungus one day after treatment. In a few cases (noted in the table) the plant was inoculated with the fungus two days before treatment.

For experiment [2], the system named is Puccinia recondita tritici. As to the kind of experiment: Leaf Rust of Wheat (PUCCRT), whole-plant fungicide test. Particulars: Puccinia recondita, foliar, 24 h, 200 ppm on foliage, one-day protectant test, read-out: PUCCRT percent control of disease.
The subject of the next experiment is Phytophthora infestans. Nature of the experiment: whole plant or invertebrate. The note with it: Phytophthora infestans, in Solanum lycopersicum, 24 h; for pest or weed control at 200 ppm: foliar, read-out: PHYTIN percent control of disease, 200 ppm on foliage, tomato, one-day protectant test.
The subject of another experiment is Erysiphe cichoracaerum. Nature of the experiment: Cucumber Powdery Mildew (ERYSCI), whole-plant fungicide test. The note with it: Erysiphe, foliar, 24 h, 200 ppm on foliage, one-day protectant test, read-out: ERYSCI percent control of disease.

For the compound `CC(C)c1ccc(CCNc2ncnc3scc(Cl)c23)cc1` [Compound 7], the pest or weed control at 200 ppm is 50 to 79% in the experiment with Septoria tritici; 50 to 79% with Leptosphaeria nodorum; 0 to 49% in the experiment with Colletotricum lagenarium; 80 to 100% in the experiment on Magnaporthe grisea; 80 to 100% in [1]; 50 to 79% in the experiment with Cochliobolus sativus. The pest or weed control at 200 ppm (in [2]; with Erysiphe cichoracaerum) was 80 to 100% each time. The pest or weed control at 100 ppm with Phytophthora infestans (read-out: PHYTIN percent control of disease, 100 ppm (footnote a), tomato, one-day protectant test) lay in the range of 80 to 100%.
Consider `Clc1csc2ncnc(NC3Cc4ccccc4C3)c12` [Compound 9], for which the pest or weed control at 200 ppm in the experiment with Septoria tritici was 0 to 49%; with Leptosphaeria nodorum, 50 to 79%; in the experiment on Colletotricum lagenarium it was 0 to 49%; with Magnaporthe grisea, 80 to 100%; in experiment [1], 0 to 49%; in the experiment on Cochliobolus sativus, 80 to 100%. Moreover, the pest or weed control at 200 ppm (in experiment [2]; in the experiment on Phytophthora infestans; in the experiment with Erysiphe cichoracaerum) was 80 to 100% in each case.
Take `CC(Nc1ncnc2scc(Cl)c12)c1ccc[nH]1` (stereo not drawn) [Compound 11]: the pest or weed control at 200 ppm is 50 to 79% with Septoria tritici; 50 to 79% in the experiment with Leptosphaeria nodorum; 0 to 49% in the experiment on Colletotricum lagenarium; 50 to 79% in the experiment with Magnaporthe grisea; 0 to 49% in experiment [1]; 0 to 49% with Cochliobolus sativus. The pest or weed control at 200 ppm in [2] fell in the range of 50 to 79%; in the experiment with Phytophthora infestans, 0 to 49%; in the experiment with Erysiphe cichoracaerum, 0 to 49%.
As to `CC(Nc1ncnc2scc(Cl)c12)c1ccn(C)c1` (stereo not drawn) [Compound 12], the pest or weed control at 200 ppm in the experiment on Septoria tritici is 0 to 49%; with Leptosphaeria nodorum, 50 to 79%; with Colletotricum lagenarium it was 0 to 49%; with Magnaporthe grisea, 80 to 100%; in [1], 0 to 49%; in the experiment with Cochliobolus sativus, 0 to 49%. Besides, the pest or weed control at 200 ppm in [2] was 50 to 79%; in the experiment with Phytophthora infestans it was 80 to 100%; in the experiment on Erysiphe cichoracaerum, 0 to 49%.
In the case of `CC(Nc1ncnc2scc(Cl)c12)c1cccn1C` (stereo not drawn) [Compound 13], the pest or weed control at 200 ppm lay in the range of 0 to 49% in the experiment with Septoria tritici; 0 to 49% in the experiment with Leptosphaeria nodorum; 0 to 49% in the experiment on Colletotricum lagenarium; 50 to 79% in the experiment with Magnaporthe grisea; 0 to 49% in experiment [1]; 0 to 49% in the experiment on Cochliobolus sativus. Also, the pest or weed control at 200 ppm (in experiment [2]; with Phytophthora infestans; in the experiment on Erysiphe cichoracaerum) was 0 to 49% in each case.
With `COCc1ccc(C(C)Nc2ncnc3scc(Cl)c23)cc1` (stereo not drawn) [Compound 14], the pest or weed control at 200 ppm with Septoria tritici was 80 to 100%; in the experiment with Leptosphaeria nodorum, 80 to 100%; in the experiment with Colletotricum lagenarium, 80 to 100%; in the experiment with Magnaporthe grisea it was 80 to 100%; in experiment [1] it was 80 to 100%; with Cochliobolus sativus, 0 to 49%. Also, the pest or weed control at 200 ppm (in experiment [2]; in the experiment with Phytophthora infestans; with Erysiphe cichoracaerum) was 80 to 100% each time.
For `CC(Nc1ncnc2scc(Cl)c12)c1cc[nH]c1` (stereo not drawn) [Compound 15], the pest or weed control at 200 ppm with Septoria tritici was in the range of 0 to 49%; with Leptosphaeria nodorum, 0 to 49%; with Colletotricum lagenarium it was 0 to 49%; in the experiment with Magnaporthe grisea, 50 to 79%; in [1], 0 to 49%; with Cochliobolus sativus, 0 to 49%. Besides, the pest or weed control at 200 ppm in experiment [2] was 80 to 100%; with Phytophthora infestans, 0 to 49%; in the experiment on Erysiphe cichoracaerum it was 0 to 49%.
As to `CC(Nc1ncnc2scc(Cl)c12)c1ccn(C(C)C)c1` (stereo not drawn) [Compound 16], the pest or weed control at 200 ppm with Septoria tritici is 0 to 49%; with Leptosphaeria nodorum, 0 to 49%; in the experiment on Colletotricum lagenarium, 0 to 49%; in the experiment on Magnaporthe grisea, 50 to 79%; in experiment [1], 0 to 49%; with Cochliobolus sativus, 50 to 79%. In addition, the pest or weed control at 200 ppm (in experiment [2]; with Phytophthora infestans; in the experiment with Erysiphe cichoracaerum) was 0 to 49% in each case.
Turning to `Clc1csc2ncnc(C3Cc4ccccc4C3)c12` [Compound 17], the pest or weed control at 200 ppm in the experiment on Septoria tritici was in the range of 0 to 49%; in the experiment on Leptosphaeria nodorum, 0 to 49%; in the experiment with Colletotricum lagenarium, 0 to 49%; with Magnaporthe grisea, 0 to 49%; in experiment [1] it was 0 to 49%; in the experiment on Cochliobolus sativus, 50 to 79%. Further, the pest or weed control at 200 ppm (in [2]; with Phytophthora infestans; in the experiment with Erysiphe cichoracaerum) was 0 to 49% in each case.
Take `CC(COc1ccc(C(F)(F)F)cn1)Nc1ncnc2scc(Cl)c12` (stereo not drawn) [Compound 18, 5-chloro-N-(1-methyl-2-{[5-(trifluoromethyl)pyridin-2-yl]oxy}ethyl)thieno [2,3-d]pyrimidin-4-amine]: the pest or weed control at 200 ppm with Septoria tritici is 80 to 100%; with Leptosphaeria nodorum, 80 to 100%; in the experiment with Colletotricum lagenarium it was 0 to 49%; with Magnaporthe grisea, 80 to 100%; in experiment [1] it was 80 to 100%; with Cochliobolus sativus it was 0 to 49%. The pest or weed control at 200 ppm (in [2]; with Phytophthora infestans; with Erysiphe cichoracaerum) was 80 to 100% in each case.
As to `CC(Nc1ncnc2scc(Cl)c12)c1ccc(C(F)(F)F)cn1` (stereo not drawn) [Compound 19], the pest or weed control at 200 ppm lay in the range of 50 to 79% with Septoria tritici; 50 to 79% in the experiment on Leptosphaeria nodorum; 0 to 49% in the experiment with Colletotricum lagenarium; 80 to 100% in the experiment on Magnaporthe grisea; 50 to 79% in experiment [1]; 80 to 100% in the experiment with Cochliobolus sativus. In addition, the pest or weed control at 200 ppm in [2] fell in the range of 50 to 79%; with Phytophthora infestans, 0 to 49%; with Erysiphe cichoracaerum, 0 to 49%.
In the case of `COC(=O)c1ccc(CNc2ncnc3scc(Cl)c23)cc1` [Compound 20], the pest or weed control at 200 ppm is 50 to 79% in the experiment on Septoria tritici; 0 to 49% with Leptosphaeria nodorum; 0 to 49% with Magnaporthe grisea; 0 to 49% in [1]; 0 to 49% in the experiment on Cochliobolus sativus; 0 to 49% in experiment [2]. In addition, in the experiment on Erysiphe cichoracaerum, the pest or weed control at 200 ppm lay within 0 to 49%.
With `CC(Nc1ncnc2scc(Cl)c12)c1cnco1` (stereo not drawn) [Compound 21], the pest or weed control at 200 ppm in the experiment on Septoria tritici is 50 to 79%; with Leptosphaeria nodorum, 0 to 49%; in the experiment on Magnaporthe grisea, 80 to 100%; in experiment [1], 0 to 49%; with Cochliobolus sativus it was 0 to 49%; in [2], 80 to 100%. Also, the pest or weed control at 200 ppm in the experiment with Erysiphe cichoracaerum was in the range of 50 to 79%.
Consider `CC(Nc1ncnc2scc(Cl)c12)c1nccs1` (stereo not drawn) [Compound 22], for which the pest or weed control at 200 ppm lay in the range of 50 to 79% in the experiment on Septoria tritici; 0 to 49% with Leptosphaeria nodorum; 80 to 100% in the experiment on Magnaporthe grisea; 0 to 49% in [1]; 0 to 49% in the experiment on Cochliobolus sativus; 80 to 100% in [2]. The pest or weed control at 200 ppm with Erysiphe cichoracaerum fell in the range of 80 to 100%.
